Measured values taken from US20130281467A1, “NOVEL MICROBICIDES” (SYNGENTA PARTICIPATIONS AG, priority 2010, published 2013).

Key:
[1] = system: Mycosphaerella arachidis (Cercospora arachidicola); assay: Fungicidal activity against Mycosphaerella arachidis (Cercospora arachidicola) / liquid culture (early leaf spot); type: cell-based; conditions: 4-5 days after application, read-out: disease control (inhibition of growth, photometrically)
Procedure: Fungicidal Activity Against Mycosphaerella arachidis (Cercospora arachidicola)/Liquid Culture (Early Leaf Spot) Conidia of the fungus from cryogenic storage were directly mixed into nutrient broth (PDB potato dextrose broth). After placing a (DMSO) solution of test compound into a microtiter plate (96-well format), the nutrient broth containing the fungal spores was added. The test plates were incubated at 24° C. and the inhibition of growth was determined photometrically 4-5 days after application.

[2] = system: Glomerella lagenarium (Colletotrichum lagenarium); assay: Fungicidal activity against Glomerella lagenarium (Colletotrichum lagenarium) / liquid culture (anthracnose); type: cell-based; conditions: Colletotrichum orbiculare, 3-4 days after application, read-out: disease control (inhibition of growth, photometrically)
Procedure: Fungicidal Activity Against Glomerella lagenarium (Colletotrichum lagenarium)/Liquid Culture (Anthracnose) Conidia of the fungus from cryogenic storage were directly mixed into nutrient broth (PDB potato dextrose broth). After placing a (DMSO) solution of test compound into a microtiter plate (96-well format), the nutrient broth containing the fungal spores was added. The test plates were incubated at 24° C. and the inhibition of growth was measured photometrically 3-4 days after application.

[3] = system: Phaeosphaeria nodorum (Septoria nodorum); assay: Fungicidal activity against Phaeosphaeria nodorum (Septoria nodorum) / wheat / leaf disc preventative (glume blotch); type: in vivo; conditions: Parastagonospora nodorum, foliar, wheat leaf segments, inoculated 2 days after application, compared to untreated, read-out: disease control
Procedure: Fungicidal Activity Against Phaeosphaeria nodorum (Septoria nodorum)/Wheat/Leaf Disc Preventative (Glume Blotch) Wheat leaf segments cv. Kanzler were placed on agar in a multiwell plate (24-well format) and sprayed with the formulated test compound diluted in water. The leaf disks were inoculated with a spore suspension of the fungus 2 days after application. The inoculated test leaf disks were incubated at 20° C. and 75% rh under a light regime of 12 h light/12 h darkness in a climate cabinet and the activity of a compound was assessed as percent disease control compared to untreated when an appropriate level of disease damage appears in untreated check leaf disks (5-7 days after application).

[4] = system: Mycosphaerella graminicola (Septoria tritici); assay: Fungicidal activity against Mycosphaerella graminicola (Septoria tritici) / liquid culture (Septoria blotch); type: cell-based; conditions: Zymoseptoria tritici, 4-5 days after application, read-out: disease control (inhibition of growth, photometrically)
Procedure: Fungicidal Activity Against Mycosphaerella graminicola (Septoria tritici)/Liquid Culture (Septoria Blotch) Conidia of the fungus from cryogenic storage were directly mixed into nutrient broth (PDB potato dextrose broth). After placing a (DMSO) solution of test compound into a microtiter plate (96-well format), the nutrient broth containing the fungal spores was added. The test plates were incubated at 24° C. and the inhibition of growth was determined photometrically 4-5 days after application.

[5] = system: Gaeumannomyces graminis; assay: Fungicidal activity against Gaeumannomyces graminis / liquid culture (take-all of cereals); type: cell-based; conditions: 4-5 days after application, read-out: disease control (inhibition of growth, photometrically)
Procedure: Fungicidal Activity Against Gaeumannomyces graminis/Liquid Culture (Take-all of Cereals) Mycelial fragments of the fungus from cryogenic storage were directly mixed into nutrient broth (PDB potato dextrose broth). After placing a (DMSO) solution of test compound into a microtiter plate (96-well format), the nutrient broth containing the fungal spores iss added. The test plates were incubated at 24° C. and the inhibition of growth was determined photometrically 4-5 days after application.

[6] = system: Thanatephorus cucumeris (Rhizoctonia solani); assay: Fungicidal activity against Thanatephorus cucumeris (Rhizoctonia solani) / liquid culture (foot rot, damping-off); type: cell-based; conditions: 3-4 days after application, read-out: disease control (inhibition of growth, photometrically)
Procedure: Fungicidal Activity Against Thanatephorus cucumeris (Rhizoctonia solani)/Liquid Culture (Foot Rot, Damping-Off) Mycelia fragments of a newly grown liquid culture of the fungus were directly mixed into nutrient broth (PDB potato dextrose broth). After placing a (DMSO) solution of the test compounds into a microtiter plate (96-well format), the nutrient broth containing the fungal material was added. The test plates were incubated at 24° C. and the inhibition of growth was determined photometrically 3-4 days after application.

[7] = system: Pyrenophora teres; assay: Fungicidal activity against Pyrenophora teres / barley / leaf disc preventative (net blotch); type: in vivo; conditions: foliar, barley leaf segments, inoculated 2 days after application, compared to untreated, read-out: disease control
Procedure: Fungicidal Activity Against Pyrenophora teres/Barley/Leaf Disc Preventative (Net Blotch) Barley leaf segments cv. Hasso were placed on agar in a multiwell plate (24-well format) and sprayed with the formulated test compound diluted in water. The leaf segments were inoculated with a spore suspension of the fungus 2 days after application. The inoculated leaf segments were incubated at 20° C. and 65% rh under a light regime of 12 h light/12 h darkness in a climate cabinet and the activity of a compound was assessed as disease control compared to untreated when an appropriate level of disease damage appears in untreated check leaf segments (5-7 days after application).

[8] = system: Botryotinia fuckeliana (Botrytis cinerea); assay: Fungicidal activity against Botryotinia fuckeliana (Botrytis cinerea) / liquid culture (gray mould); type: cell-based; conditions: 3-4 days after application, read-out: disease control (inhibition of growth, photometrically)
Procedure: Fungicidal Activity Against Botryotinia fuckeliana (Botrytis cinerea)/Liquid Culture (Gray Mould) Conidia of the fungus from cryogenic storage were directly mixed into nutrient broth (Vogels broth). After placing a (DMSO) solution of test compound into a microtiter plate (96-well format), the nutrient broth containing the fungal spores was added. The test plates were incubated at 24° C. and the inhibition of growth was determined photometrically 3-4 days after application.

[9] = system: Blumeria graminis f. Sp. tritici (Erysiphe graminis f. sp. tritici); assay: Fungicidal activity against Blumeria graminis f. sp. tritici / wheat / leaf disc preventative (powdery mildew on wheat); type: in vivo; conditions: foliar, wheat leaf segments, inoculated 1 day after application, compared to untreated, read-out: disease control
Procedure: Fungicidal Activity Against Blumeria graminis f. Sp. tritici (Erysiphe graminis f. sp. tritici)/Wheat/Leaf Disc Preventative (Powdery Mildew on Wheat)
Wheat leaf segments cv. Kanzler were placed on agar in a multiwell plate (24-well format) and sprayed with the formulated test compound diluted in water. The leaf disks were inoculated by shaking powdery mildew infected plants above the test plates 1 day after application. The inoculated leaf disks were incubated at 20° C. and 60% rh under a light regime of 24 h darkness followed by 12 h light/12 h darkness in a climate chamber and the activity of a compound was assessed as percent disease control compared to untreated when an appropriate level of disease damage appears on untreated check leaf segments (6-8 days after application).

[10] = system: Puccinia recondita f. sp. tritici; assay: Fungicidal activity against Puccinia recondita f. sp. tritici / wheat / leaf disc preventative (brown rust); type: in vivo; conditions: foliar, wheat leaf segments, inoculated 1 day after application, compared to untreated, read-out: disease control
Procedure: Fungicidal Activity Against Puccinia recondita f. sp. tritici/Wheat/Leaf Disc Preventative (Brown Rust) Wheat leaf segments cv. Kanzler were placed on agar in multiwell plates (24-well format) and sprayed with the formulated test compound diluted in water. The leaf disks were inoculated with a spore suspension of the fungus 1 day after application. The inoculated leaf segments were incubated at 19° C. and 75% rh under a light regime of 12 h light/12 h darkness in a climate cabinet and the activity of a compound was assessed as percent disease control compared to untreated when an appropriate level of disease damage appears in untreated check leaf segments (7-9 days after application).

[11] = system: Monographella nivalis (Microdochium nivale); assay: Fungicidal activity against Monographella nivalis (Microdochium nivale) / liquid culture (foot rot cereals); type: cell-based; conditions: 4-5 days after application, read-out: disease control (inhibition of growth, photometrically)
Procedure: Fungicidal Activity Against Monographella nivalis (Microdochium nivale)/Liquid Culture (Foot Rot Cereals) Conidia of the fungus from cryogenic storage were directly mixed into nutrient broth (PDB potato dextrose broth). After placing a (DMSO) solution of test compound into a microtiter plate (96-well format), the nutrient broth containing the fungal spores was added. The test plates were incubated at 24° C. and the inhibition of growth was determined photometrically 4-5 days after application.

c1ccc(Cc2cccc(-c3ncc4c(n3)C3CCC4C3)n2)cc1 (stereo not drawn) [Compound 26]
≥ 80%: inhibition at 200 ppm [1] | inhibition at 200 ppm [2] | pest or weed control at 200 ppm [3] | inhibition at 200 ppm [4] | inhibition at 200 ppm [5] | inhibition at 200 ppm [6] | pest or weed control at 200 ppm [7] | inhibition at 200 ppm [8] | pest or weed control at 200 ppm [9] | pest or weed control at 200 ppm [10] | inhibition at 200 ppm [11]

Clc1ccccc1Cc1cccc(-c2ncc3c(n2)OCCO3)n1 [Compound 28]
≥ 80%: inhibition at 200 ppm [1] | inhibition at 200 ppm [2] | pest or weed control at 200 ppm [3] | inhibition at 200 ppm [4] | inhibition at 200 ppm [5] | inhibition at 200 ppm [6] | pest or weed control at 200 ppm [7] | inhibition at 200 ppm [8] | pest or weed control at 200 ppm [9] | pest or weed control at 200 ppm [10] | inhibition at 200 ppm [11]

c1ccc(Cc2cccc(-c3ncc4c(n3)CCCCC4)n2)cc1 [Compound 29, 2-(6-Benzyl-pyridin-2-yl)-6,7,8,9-tetrahydro-5H-cycloheptapyrimidine]
≥ 80%: inhibition at 200 ppm [1] | inhibition at 200 ppm [2] | pest or weed control at 200 ppm [3] | inhibition at 200 ppm [4] | inhibition at 200 ppm [5] | inhibition at 200 ppm [6] | pest or weed control at 200 ppm [7] | inhibition at 200 ppm [8] | pest or weed control at 200 ppm [9] | pest or weed control at 200 ppm [10] | inhibition at 200 ppm [11]

Cc1ccc(Cc2cccc(-c3ncc4c(n3)CCCCC4)n2)cc1 [Compound 30]
≥ 80%: inhibition at 200 ppm [1] | inhibition at 200 ppm [2] | pest or weed control at 200 ppm [3] | inhibition at 200 ppm [4] | inhibition at 200 ppm [5] | inhibition at 200 ppm [6] | pest or weed control at 200 ppm [7] | inhibition at 200 ppm [8] | pest or weed control at 200 ppm [9] | pest or weed control at 200 ppm [10] | inhibition at 200 ppm [11]

Cc1ccccc1Cc1cccc(-c2ncc3c(n2)CCCCC3)n1 [Compound 32]
≥ 80%: inhibition at 200 ppm [1] | inhibition at 200 ppm [2] | pest or weed control at 200 ppm [3] | inhibition at 200 ppm [4] | inhibition at 200 ppm [5] | inhibition at 200 ppm [6] | pest or weed control at 200 ppm [7] | inhibition at 200 ppm [8] | pest or weed control at 200 ppm [9] | pest or weed control at 200 ppm [10] | inhibition at 200 ppm [11]

COc1ccccc1Cc1cccc(-c2ncc3c(n2)CCCCC3)n1 [Compound 34]
≥ 80%: inhibition at 200 ppm [1] | inhibition at 200 ppm [2] | pest or weed control at 200 ppm [3] | inhibition at 200 ppm [4] | inhibition at 200 ppm [5] | inhibition at 200 ppm [6] | pest or weed control at 200 ppm [7] | inhibition at 200 ppm [8] | pest or weed control at 200 ppm [9] | pest or weed control at 200 ppm [10] | inhibition at 200 ppm [11]

COc1ccc(Cc2cccc(-c3ncc4c(n3)CCCCC4)n2)cc1 [Compound 35]
≥ 80%: inhibition at 200 ppm [1] | inhibition at 200 ppm [2] | pest or weed control at 200 ppm [3] | inhibition at 200 ppm [4] | inhibition at 200 ppm [5] | inhibition at 200 ppm [6] | pest or weed control at 200 ppm [7] | inhibition at 200 ppm [8] | pest or weed control at 200 ppm [9] | pest or weed control at 200 ppm [10] | inhibition at 200 ppm [11]

COc1ccc(Cc2cccc(-c3ncc4c(n3)CC(C)(C)CC4)n2)cc1 [Compound 37]
≥ 80%: inhibition at 200 ppm [1] | inhibition at 200 ppm [2] | pest or weed control at 200 ppm [3] | inhibition at 200 ppm [4] | inhibition at 200 ppm [5] | inhibition at 200 ppm [6] | pest or weed control at 200 ppm [7] | inhibition at 200 ppm [8] | pest or weed control at 200 ppm [9] | pest or weed control at 200 ppm [10] | inhibition at 200 ppm [11]

COc1ccc(Cc2cccc(-c3ncc4c(n3)CCCC4)n2)cn1 [Compound 41]
≥ 80%: inhibition at 200 ppm [1] | inhibition at 200 ppm [2] | pest or weed control at 200 ppm [3] | inhibition at 200 ppm [4] | inhibition at 200 ppm [5] | inhibition at 200 ppm [6] | pest or weed control at 200 ppm [7] | inhibition at 200 ppm [8] | pest or weed control at 200 ppm [9] | pest or weed control at 200 ppm [10] | inhibition at 200 ppm [11]
